Experimental data as given in article PMC10892288, “Early Stage Preclinical Formulation Strategies to Alter the Pharmacokinetic Profile of Two Small Molecule Therapeutics” (Pharmaceuticals, 2024).

Columns and labels:
[1] = Log P (physiochemical properties); format: physicochemical
[2] = Mouse PK of G7883, SC in sunflower oil; format: in vivo
Experimental: was screened in different oil vehicles including corn, coconut, paraffin, soybean, and sunflower oil. […] For subcutaneous administrations, […] was formulated in sunflower oil as a suspension and dosed at 250 mg/kg with a dosing volume of 5 mL/kg. Food and water were available ad libitum to animals. Blood samples were collected post-dose into tubes containing K2EDTA as an anticoagulant. Samples were taken from three different animals at each time point. After the blood was mixed with K2EDTA, the samples were stored at -80 °C until analysis. All plasma and cell media concentrations of […] and […] were determined using liquid chromatography-tandem mass spectrometry after protein precipitation with acetonitrile and injection of the supernatant onto the column (Waters ACQUITY UPLC BEH C18 1.7 μm, 2.1 × 50 mm for […] and […]). The aqueous mobile phase was 0.1% formic acid, 2 mM ammonium formate in water/acetonitrile (v:v, 95:5), and the organic mobile phase was 0.1% formic acid, 2 mM ammonium formate in acetonitrile/water (v:v, 95:5). An AB Sciex API 4000 Triple Quad instrument was used for detecting […] and […] (Figure S2). The electrospray ionization source in both columns was operated in the positive ion and multiple reaction monitoring (MRM) detection modes. The MRM transitions for […] and […] were m/z 462.2 (Q1) and 253.10 (Q3) and m/z 454.2 (Q1) and 325.9 (Q3), respectively. The dynamic range of both assays was 0.50-50.0 ng/mL, and the total run time was 1.6 min. The lower limit of quantitation of the assay was […], and the dilution quality control concentration was set at 10 ng/mL with acceptance criteria for accuracy and precision of 25%. All plasma and cell media concentrations of […] were determined using liquid chromatography-tandem mass spectrometry after protein precipitation with acetonitrile and injection of the supernatant onto the column (Phenomenex Kinetex XB-C18, 30 × 2.1 mm, 2.6 μm). The aqueous mobile phase was 10 mM of ammonium formate in water, and the organic mobile phase was 0.1% formic acid in acetonitrile. An AB Sciex API 5500 Triple Quad instrument was used for detecting […]. The electrospray ionization source in both columns was operated in the positive ion and MRM detection modes. The MRM transitions for […] were m/z 462.2 (Q1) and 253.10 (Q3), respectively. The dynamic range of the assay was 0.50-50.0 ng/mL, and the total run time was 2 min. The lower limit of quantitation of the assay was […], and the dilution quality control concentration was set at 10 ng/mL with acceptance criteria for accuracy and precision of 25%.

[3] = Mouse PK of G7883, IP in MCT vehicle; format: in vivo, female NSG mice; details: for AUC(0-t) / Cmax / Tmax / half-life: female, NSG, plasma; for half-life: ip
Experimental: A total of 0.6% w/v Methylcellulose, 0.2% w/v Tween 80 in water (MCT) was prepared by slowly adding Methylcellulose (Methylocel A15 LV; CAS 9004-67-5, Part ID: 64605-500G-F 27.5-31.5% Methoxyl basis, Sigma-Aldrich, St. Louis, MO, USA) in small portions to prevent clumping while stirring into water at 70–80 °C. Once a homogeneous suspension formed, Tween 80 (Polysorbate 80; CAS#9005-65-6 (Polyoxyethylene (20) Sorbitan Monooleate; Tween 80) Part ID: PO138, Spectrum Chemical, New Brunswick, NJ, USA) was added and stirred until fully dissolved. Vehicle was filtered through 0.22 µm PES (Corning REF no. 431098) prior to adding to the compound for dosing. Respective compound was added based on the target concentration to the MCT vehicle and stirred at 35 °C until the power was well-dispersed. Formulations were homogenized through a polytron homogenizer and then sonicated in a water bath sonicator until a homogeneous suspension was achieved.
G7883 was dosed in three female NSG mice in-house with body weight ranging from 20 to 25 g. Three mice were given an IP dose of G7883 formulated in the MCT vehicle at 50 mpk and 150 mpk with a 5 mL/kg dosing volume. A total of 10 µL of blood was collected serially at 0.25, 0.5, 1, 3, 7, and 24 h post-dose and diluted in 40 µL of the potassium K2EDTA water. The frozen blood samples were stored at −70 °C or lower until analysis.
All plasma and cell media concentrations of G7883 and G6893 were determined using liquid chromatography–tandem mass spectrometry after protein precipitation with acetonitrile and injection of the supernatant onto the column (Waters ACQUITY UPLC BEH C18 1.7 μm, 2.1 × 50 mm for G7883 and G6893). The aqueous mobile phase was 0.1% formic acid, 2 mM ammonium formate in water/acetonitrile (v:v, 95:5), and the organic mobile phase was 0.1% formic acid, 2 mM ammonium formate in acetonitrile/water (v:v, 95:5). An AB Sciex API 4000 Triple Quad instrument was used for detecting G7883 and G6893 (Figure S2). The electrospray ionization source in both columns was operated in the positive ion and multiple reaction monitoring (MRM) detection modes. The MRM transitions for G7883 and G6893 were m/z 462.2 (Q1) and 253.10 (Q3) and m/z 454.2 (Q1) and 325.9 (Q3), respectively. The dynamic range of both assays was 0.50–50.0 ng/mL, and the total run time was 1.6 min. The lower limit of quantitation of the assay was […], and the dilution quality control concentration was set at 10 ng/mL with acceptance criteria for accuracy and precision of 25%.
All plasma and cell media concentrations of G7883 were determined using liquid chromatography–tandem mass spectrometry after protein precipitation with acetonitrile and injection of the supernatant onto the column (Phenomenex Kinetex XB-C18, 30 × 2.1 mm, 2.6 µm). The aqueous mobile phase was 10 mM of ammonium formate in water, and the organic mobile phase was 0.1% formic acid in acetonitrile. An AB Sciex API 5500 Triple Quad instrument was used for detecting G7883. The electrospray ionization source in both columns was operated in the positive ion and MRM detection modes. The MRM transitions for G7883 were m/z 462.2 (Q1) and 253.10 (Q3), respectively. The dynamic range of the assay was 0.50–50.0 ng/mL, and the total run time was 2 min. The lower limit of quantitation of the assay was […], and the dilution quality control concentration was set at 10 ng/mL with acceptance criteria for accuracy and precision of 25%.

[4] = Body weight change in multiday IP study; format: in vivo; details: IP 150 mpk BID, study spanning over 10 days, mice
[5] = SC 250 mpk sunflower oil compared with PO 250 mpk
[6] = plasma, 250 mg/kg, SC 250 mpk, sunflower oil suspension, mean ± SD
[7] = 50 mg/kg, IP 50 mpk, MCT vehicle, mean
[8] = 150 mg/kg, IP 150 mpk, MCT vehicle, mean

Compound: Cc1nccnc1-c1nn2c(=O)cc(-c3ccc(C4CCCCC4)cc3)[nH]c2c1C(=O)N1CC(CF)C1 [G7883, 5-(4-cyclohexylphenyl)-3-[3-(fluoromethyl)azetidine-1-carbonyl]-2-(3-methylpyrazin-2-yl)-4H-pyrazolo[1,5-a]pyrimidin-7-one]
- logP [1]: 1.83
- reduction of Cmax, SC versus IP ([2]; SC 250 mpk compared with IP 150 mpk): approximately 4 fold
- half-life extension, SC versus PO [2, 5]: 2.5 fold
- increase of AUC, SC oil formulation versus oral [2, 5]: more than 5 fold
- F ([2]; SC 250 mpk, sunflower oil suspension, mean ± SD, 250 mg/kg): 46.4 ± 13.2%
- AUC(0-t) [2, 6]: 137 ± 51.1 µM·h
- Cmax [2, 6]: 16.7 ± 12 µM
- Tmax [2, 6]: 2.67 ± 1.15 h
- half-life [2, 6]: 6.94 ± 2.93 h
- bioavailability ([2]; plasma, sc, 250 mg/kg, SC 250 mpk, sunflower oil suspension, mean ± SD): 46%
- increase of AUC coverage, IP versus PO ([3]; IP 150 mpk compared with PO 250 mpk): approximately 10 fold
- t1/2 ([3]; IP 150 mpk, MCT vehicle, mean, 150 mg/kg): 1.53 h
- AUC(0-t) [3, 7]: 31.2 µM·h
- Cmax [3, 7]: 23.9 µM
- Tmax [3, 7]: 1 h
- AUC(0-t) [3, 8]: 217 µM·h
- Cmax [3, 8]: 69.2 µM
- Tmax [3, 8]: 1 h
- half-life [3, 7]: 0.895 h
- half-life [3, 8]: 1.5 h
- body weight change [4]: significant decreases in the body weights of mice were observed
